# Measured values reported in ChEMBL document CHEMBL1667750, “Synthesis and biological activity of 7H-benzo[4,5]indolo[2,3-b]-quinoxaline derivatives” (Eur J Med Chem, 2011).
# Calls of active or inactive are those of the source. The rule behind the calls is not given here.
# Columns and labels:
# [1] = tested on: Calf thymus DNA; test: Binding affinity to calf thymus DNA by ethidium bromide displacement assay; format: nucleic-acid assay, Bos taurus; conditions: for logKa: Bos taurus
# [2] = tested on: L929; test: Decrease in interferon inducing activity in VSV infected in mouse L929 cells at 1.1 uM; format: functional, cell-based
# [3] = tested on: Vesicular stomatitis virus; test: Antiviral activity against VSV infected in mouse L929 cells assessed as protection against virus-induced cytopathic effect treated immediately after viral infection at 27.5 uM; format: functional
# [4] = Cytotoxicity against mouse L929 cells; format: cell-based
# [5] = tested on: Vesicular stomatitis virus; test: Antiviral activity against VSV infected in mouse L929 cells assessed as protection against virus-induced cytopathic effect treated 24 hrs before viral infection at 110 uM; format: functional
# [6] = tested on: Vesicular stomatitis virus; test: Antiviral activity against VSV infected in mouse L929 cells assessed as protection against virus-induced cytopathic effect treated immediately after viral infection at 6.2 uM; format: functional
# [7] = tested on: Vesicular stomatitis virus; test: Antiviral activity against VSV infected in mouse L929 cells assessed as protection against virus-induced cytopathic effect treated 24 hrs before viral infection at 3.1 uM; format: functional
# [8] = tested on: Vesicular stomatitis virus; test: Antiviral activity against VSV infected in mouse L929 cells assessed as protection against virus-induced cytopathic effect treated 24 hrs before viral infection at 3 uM; format: functional
# [9] = tested on: Vesicular stomatitis virus; test: Antiviral activity against VSV infected in mouse L929 cells assessed as protection against virus-induced cytopathic effect treated immediately after viral infection at 21.3 uM; format: functional
# [10] = tested on: Vesicular stomatitis virus; test: Antiviral activity against VSV infected in mouse L929 cells assessed as protection against virus-induced cytopathic effect treated 24 hrs before viral infection at 13 uM; format: functional
# [11] = tested on: Vesicular stomatitis virus; test: Antiviral activity against VSV infected in mouse L929 cells assessed as protection against virus-induced cytopathic effect treated immediately after viral infection at 6.7 uM; format: functional
# [12] = tested on: Vesicular stomatitis virus; test: Antiviral activity against VSV infected in mouse L929 cells assessed as protection against virus-induced cytopathic effect treated immediately after viral infection at 12.5 uM; format: functional
# [13] = tested on: Vesicular stomatitis virus; test: Antiviral activity against VSV infected in mouse L929 cells assessed as protection against virus-induced cytopathic effect treated immediately after viral infection at 25 uM; format: functional
# [14] = tested on: Vesicular stomatitis virus; test: Antiviral activity against VSV infected in mouse L929 cells assessed as protection against virus-induced cytopathic effect treated 24 hrs before viral infection at 53 uM; format: functional
# [15] = tested on: Vesicular stomatitis virus; test: Antiviral activity against VSV infected in mouse L929 cells assessed as protection against virus-induced cytopathic effect treated immediately after viral infection at 21.4 uM; format: functional
# [16] = tested on: Vesicular stomatitis virus; test: Antiviral activity against VSV infected in mouse L929 cells assessed as protection against virus-induced cytopathic effect treated 24 hrs before viral infection at 0.2 uM; format: functional
# [17] = tested on: Vesicular stomatitis virus; test: Antiviral activity against VSV infected in mouse L929 cells assessed as protection against virus-induced cytopathic effect treated immediately after viral infection at 5.5 uM; format: functional
# [18] = tested on: Vesicular stomatitis virus; test: Antiviral activity against VSV infected in mouse L929 cells assessed as protection against virus-induced cytopathic effect treated immediately after viral infection at 7.1 uM; format: functional
# [19] = tested on: Vesicular stomatitis virus; test: Antiviral activity against VSV infected in mouse L929 cells assessed as protection against virus-induced cytopathic effect treated 24 hrs before viral infection at 113 uM; format: functional
# [20] = tested on: Vesicular stomatitis virus; test: Antiviral activity against VSV infected in mouse L929 cells assessed as protection against virus-induced cytopathic effect treated 24 hrs before viral infection at 6.2 uM; format: functional
# [21] = tested on: Vesicular stomatitis virus; test: Antiviral activity against VSV infected in mouse L929 cells assessed as protection against virus-induced cytopathic effect treated immediately after viral infection at 50 uM; format: functional
# [22] = tested on: Vesicular stomatitis virus; test: Antiviral activity against VSV infected in mouse L929 cells assessed as protection against virus-induced cytopathic effect treated immediately after viral infection at 15 uM; format: functional
# [23] = tested on: Vesicular stomatitis virus; test: Antiviral activity against VSV infected in mouse L929 cells assessed as protection against virus-induced cytopathic effect treated 24 hrs before viral infection at 30 uM; format: functional
SMILES,pIC50 [1],logKa [1],Activity [2],CC50 [4],Emax at 12.5 µM [12],also measured
c1ccc2c(c1)ccc1c2c2nc3ccccc3nc2n1CCN1CCCCC1,4.51,6.61,Active,> 221 µM,–,Emax at 27.5 µM [3]: 55%; Emax at 110 µM [5]: 20%
c1ccc2nc3c(nc2c1)c1ccccc1n3CCN1CCCCC1,3.91,6.01,Active,–,–,Emax at 6.2 µM [6]: 75%; Emax at 3.1 µM [7]: 90%
CCCN(CCC)CCn1c2ccc3ccccc3c2c2nc3ccccc3nc21,4.8,6.91,Active,> 42.6 µM,–,Emax at 3 µM [8]: 16%; Emax at 21.3 µM [9]: 48%
c1ccc2nc3c(nc2c1)c1ccccc1n3CCN1CCOCC1,3.78,5.89,Active,1070 µM,–,Emax at 6.2 µM [6]: 30%; Emax at 13 µM [10]: 85%
CN1CCN(CCn2c3ccc4ccccc4c3c3nc4ccccc4nc32)CC1,4.84,6.94,Active,21.4 µM,–,Emax at 13 µM [10]: 17%; Emax at 6.7 µM [11]: 80%
CCCN(CCC)CCn1c2ccccc2c2nc3ccccc3nc21,3.99,6.09,Active,–,75%,Emax at 13 µM [10]: 90%
CC1CCN(CCn2c3ccccc3c3nc4ccccc4nc32)CC1,3.88,5.98,Active,–,50%,Emax at 13 µM [10]: 90%
CCCCN(C)CCn1c2ccccc2c2nc3ccccc3nc21,3.82,5.93,Active,–,–,Emax at 25 µM [13]: 80%; Emax at 3.1 µM [7]: 75%
CN(C)CCn1c2ccccc2c2nc3ccccc3nc21,3.83,5.93,Active,–,–,Emax at 25 µM [13]: 100%; Emax at 3.1 µM [7]: 75%
CC1CCN(CCn2c3ccc4ccccc4c3c3nc4ccccc4nc32)CC1,4.48,6.58,Active,> 214 µM,–,Emax at 53 µM [14]: 30%; Emax at 21.4 µM [15]: 51%
c1ccc2c(c1)ccc1c2c2nc3ccccc3nc2n1CCN1CCOCC1,4.84,6.94,Active,–,–,Emax at 0.2 µM [16]: 10%; Emax at 5.5 µM [17]: 50%
CN1CCN(CCn2c3ccccc3c3nc4ccccc4nc32)CC1,3.77,5.87,Active,–,100%,Emax at 13 µM [10]: 85%
CCN(CC)CCn1c2ccc3ccccc3c2c2nc3ccccc3nc21,4.69,6.79,Active,180 µM,–,Emax at 7.1 µM [18]: 56%; Emax at 113 µM [19]: 14%
c1ccc2nc3c(nc2c1)c1ccccc1n3CCN1CCCCCC1,4.06,6.16,Active,–,–,Emax at 6.2 µM [20]: 90%; Emax at 50 µM [21]: 100%
c1ccc2nc3c(nc2c1)c1ccccc1n3CCN1CCCC1,3.95,6.05,Active,–,100%,Emax at 3.1 µM [7]: 85%
CN(C)CCn1c2ccc3ccccc3c2c2nc3ccccc3nc21,4.84,6.94,Active,49.9 µM,–,Emax at 15 µM [22]: 45%; Emax at 30 µM [23]: 21%
CCN(CC)CCn1c2ccccc2c2nc3ccccc3nc21,3.97,6.07,Active,–,100%,Emax at 6.2 µM [20]: 90%
CC1CCCCN1CCn1c2ccccc2c2nc3ccccc3nc21 (stereo not drawn),4.08,6.19,Active,–,–,Emax at 6.2 µM [20]: 90%; Emax at 6.2 µM [6]: 77%
CCCCN(CC)CCn1c2ccccc2c2nc3ccccc3nc21,3.91,6.01,Active,–,50%,Emax at 3.1 µM [7]: 50%
CC1CCCCN1CCn1c2ccc3ccccc3c2c2nc3ccccc3nc21 (stereo not drawn),4.73,6.83,Active,113 µM,–,Emax at 53 µM [14]: 20%; Emax at 6.7 µM [11]: 50%
